These are literature values, as cited in patent publication US7163959B2, “Prostagladin derivatives for the treatment of glaucoma or ocular hypertension” (priority 1990, dated 2007).

Each structure is given as a SMILES string.

The subject of one series is man. The following applies: clinical studies, Flach and Eliason (1988); cited from earlier work.
The next series concerns monkey. The following applies: compounds or their esters, Bito et al, 1989; cited from earlier work.

For `CCCCC[C@H](O)/C=C/[C@H]1[C@H](O)CC(=O)[C@@H]1C/C=C\CCCC(=O)O` [PGE2], the “IOP effect, in words” value with man is on record as “IOP-lowering effect”; with monkey, “lower IOP”.
In the case of `CCCCC[C@H](O)/C=C/[C@H]1C=CC(=O)[C@@H]1C/C=C\CCCC(=O)O` [PGA2], the “IOP effect, in words” value in the series on monkey is on record as “lower IOP”.
